Source: ChEMBL document CHEMBL4507327 (2021)

Tests used:
[1] = target: Vascular endothelial growth factor receptor 1 (Homo sapiens, UniProt P17948); test: FLT1(FLT1LGC5) Takeda global kinase panel
[2] = target: Cyclin-dependent kinase 5 (Homo sapiens, UniProt Q00535); test: CDK5(CDK5CGS1) Takeda global kinase panel
[3] = target: Serine/threonine-protein kinase SIK3 (Homo sapiens, UniProt Q9Y2K2); test: QSK(SIK3LGP1) Takeda global kinase panel
[4] = target: Ribosomal protein S6 kinase alpha-1 (Homo sapiens, UniProt Q15418); test: RSK1 [p90RSK(R6A2CGE1)] Takeda global kinase panel
[5] = target: Sodium-dependent noradrenaline transporter (Homo sapiens) (UniProt P23975); conditions: Compound concentration 10.0 uM
Ephrin type-A receptor 1 = Ephrin type-A receptor 1 (Homo sapiens, UniProt P21709); test: EphA1(EPA1LGY1) Takeda global kinase panel
Chain of Ephrin type-A receptor 1 (P21709 whole entry): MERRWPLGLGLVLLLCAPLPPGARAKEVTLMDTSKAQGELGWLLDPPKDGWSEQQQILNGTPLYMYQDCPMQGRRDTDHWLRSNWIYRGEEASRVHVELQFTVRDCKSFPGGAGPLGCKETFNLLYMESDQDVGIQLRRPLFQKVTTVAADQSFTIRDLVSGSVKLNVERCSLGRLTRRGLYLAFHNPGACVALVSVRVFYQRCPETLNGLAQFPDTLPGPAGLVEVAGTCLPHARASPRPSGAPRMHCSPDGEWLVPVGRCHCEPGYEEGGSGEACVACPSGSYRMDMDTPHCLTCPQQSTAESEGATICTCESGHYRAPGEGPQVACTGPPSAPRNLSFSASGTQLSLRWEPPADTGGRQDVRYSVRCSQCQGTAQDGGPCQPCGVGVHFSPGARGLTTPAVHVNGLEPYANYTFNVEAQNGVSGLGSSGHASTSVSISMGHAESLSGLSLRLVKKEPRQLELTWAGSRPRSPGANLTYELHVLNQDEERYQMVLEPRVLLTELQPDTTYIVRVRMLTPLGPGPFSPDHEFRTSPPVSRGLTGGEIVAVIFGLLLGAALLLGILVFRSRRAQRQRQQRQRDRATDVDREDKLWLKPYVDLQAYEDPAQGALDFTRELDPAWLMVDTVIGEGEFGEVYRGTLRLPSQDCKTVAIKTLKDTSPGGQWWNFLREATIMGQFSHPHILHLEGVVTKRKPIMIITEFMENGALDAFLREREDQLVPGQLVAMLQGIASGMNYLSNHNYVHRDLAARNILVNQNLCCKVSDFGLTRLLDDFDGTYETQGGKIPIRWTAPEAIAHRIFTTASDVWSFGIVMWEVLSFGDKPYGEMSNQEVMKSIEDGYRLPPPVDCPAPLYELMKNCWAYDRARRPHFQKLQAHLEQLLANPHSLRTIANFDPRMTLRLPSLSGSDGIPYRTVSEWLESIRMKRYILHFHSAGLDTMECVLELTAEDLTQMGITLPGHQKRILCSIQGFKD

[6] = target: Serine/threonine-protein kinase NLK (Homo sapiens, UniProt Q9UBE8); test: NLK(NLK1LGI5) Takeda global kinase panel
[7] = target: Serine/threonine-protein kinase Nek9 (Homo sapiens, UniProt Q8TD19); test: Nek9(NEK9LGF1) Takeda global kinase panel
[8] = target: Rho-associated protein kinase 2 (Homo sapiens, UniProt O75116); test: ROCK2(ROC2LGG1) Takeda global kinase panel
[9] = target: Protein kinase C alpha type (Homo sapiens, UniProt P17252); test: PKCalpha(PRKALGY1) Takeda global kinase panel
[10] = target: Serine/threonine-protein kinase MRCK alpha (Homo sapiens, UniProt Q5VT25); test: MRCKalpha(CD4ALGY1) Takeda global kinase panel
[11] = target: Leukocyte tyrosine kinase receptor (Homo sapiens, UniProt P29376); test: LTK(LTK1LGF1) Takeda global kinase panel
Chain of Leukocyte tyrosine kinase receptor (P29376 whole entry): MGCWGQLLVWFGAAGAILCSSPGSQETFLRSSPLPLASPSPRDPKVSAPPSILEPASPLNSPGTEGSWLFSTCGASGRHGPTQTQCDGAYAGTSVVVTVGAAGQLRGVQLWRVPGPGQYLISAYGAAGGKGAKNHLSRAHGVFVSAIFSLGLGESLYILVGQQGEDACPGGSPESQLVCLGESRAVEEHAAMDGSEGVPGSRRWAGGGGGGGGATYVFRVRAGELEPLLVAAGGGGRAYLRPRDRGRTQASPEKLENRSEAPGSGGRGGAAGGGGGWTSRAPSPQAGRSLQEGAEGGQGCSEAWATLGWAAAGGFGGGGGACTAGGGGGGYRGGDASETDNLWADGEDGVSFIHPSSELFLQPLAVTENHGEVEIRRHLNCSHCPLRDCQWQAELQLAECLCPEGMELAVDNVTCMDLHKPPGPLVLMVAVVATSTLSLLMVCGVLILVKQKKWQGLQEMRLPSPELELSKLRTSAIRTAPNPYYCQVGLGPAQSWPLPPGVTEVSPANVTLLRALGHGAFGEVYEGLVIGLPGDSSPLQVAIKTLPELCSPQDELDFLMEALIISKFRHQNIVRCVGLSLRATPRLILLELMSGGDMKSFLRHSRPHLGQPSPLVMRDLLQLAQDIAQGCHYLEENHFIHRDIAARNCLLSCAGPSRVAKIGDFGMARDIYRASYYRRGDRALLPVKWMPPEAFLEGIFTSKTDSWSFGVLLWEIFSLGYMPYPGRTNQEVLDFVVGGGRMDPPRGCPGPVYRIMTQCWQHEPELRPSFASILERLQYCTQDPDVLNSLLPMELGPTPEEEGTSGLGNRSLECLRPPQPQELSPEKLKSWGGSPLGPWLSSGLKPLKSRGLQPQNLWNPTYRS

Activin receptor type-1 = Activin receptor type-1 (Homo sapiens, UniProt Q04771); test: ALK2(ACV1LGF1) Takeda global kinase panel
[12] = target: RAC-gamma serine/threonine-protein kinase (Homo sapiens, UniProt Q9Y243); test: Akt3 [PKBgamma(AKT3LGY1)] Takeda global kinase panel
[13] = target: Glycogen synthase kinase-3 beta (Homo sapiens, UniProt P49841); test: GSK3beta(GS3BLGM1) Takeda global kinase panel
[14] = target: Voltage-dependent N-type calcium channel subunit alpha-1B (Homo sapiens) (UniProt Q00975); test: Inhibition of Calcium Channel N-Type at 10 µM in the Eurofins-Panlabs radioligand binding assay (Eurofins_assay_216000); conditions: Rattus norvegicus; Compound concentration 10.0 uM
[15] = target: GABA-A receptor; anion channel (Rattus norvegicus) (UniProt O09028+P15431+P18506+P18508+P19969+P20236+P23574+P23576+P28471+P28473+P30191+P62813+P63079+P63138+Q91ZM7+Q9ES14); conditions: Compound concentration 10.0 uM
[16] = target: Phosphatidylinositol 4,5-bisphosphate 3-kinase catalytic subunit beta isoform (Homo sapiens, UniProt P42338); test: PIK3CB(PI3BCGRK) Takeda global kinase panel
[17] = target: Receptor-interacting serine/threonine-protein kinase 3 (Homo sapiens, UniProt Q9Y572); test: RIPK3(RIP3IGRI) Takeda global kinase panel
[18] = target: Dual specificity protein kinase CLK4 (Homo sapiens, UniProt Q9HAZ1); test: CLK4(CLK4IGF1) Takeda global kinase panel
[19] = target: Histamine H1 receptor (Homo sapiens) (UniProt P35367); conditions: Compound concentration 10.0 uM
[20] = target: D(1B) dopamine receptor (Homo sapiens) (UniProt P21918); test: Dopamine D5 Eurofins-Panlabs radioligand binding assay; conditions: Compound concentration 10.0 uM
Ephrin type-A receptor 5 = Ephrin type-A receptor 5 (Homo sapiens, UniProt P54756); test: EphA5(EPA5MGF1) Takeda global kinase panel
[21] = target: Cytoplasmic tyrosine-protein kinase BMX (Homo sapiens, UniProt P51813); test: Etk [BMX(BMX1CGF1)] Takeda global kinase panel
Chain of Cytoplasmic tyrosine-protein kinase BMX (P51813 whole entry): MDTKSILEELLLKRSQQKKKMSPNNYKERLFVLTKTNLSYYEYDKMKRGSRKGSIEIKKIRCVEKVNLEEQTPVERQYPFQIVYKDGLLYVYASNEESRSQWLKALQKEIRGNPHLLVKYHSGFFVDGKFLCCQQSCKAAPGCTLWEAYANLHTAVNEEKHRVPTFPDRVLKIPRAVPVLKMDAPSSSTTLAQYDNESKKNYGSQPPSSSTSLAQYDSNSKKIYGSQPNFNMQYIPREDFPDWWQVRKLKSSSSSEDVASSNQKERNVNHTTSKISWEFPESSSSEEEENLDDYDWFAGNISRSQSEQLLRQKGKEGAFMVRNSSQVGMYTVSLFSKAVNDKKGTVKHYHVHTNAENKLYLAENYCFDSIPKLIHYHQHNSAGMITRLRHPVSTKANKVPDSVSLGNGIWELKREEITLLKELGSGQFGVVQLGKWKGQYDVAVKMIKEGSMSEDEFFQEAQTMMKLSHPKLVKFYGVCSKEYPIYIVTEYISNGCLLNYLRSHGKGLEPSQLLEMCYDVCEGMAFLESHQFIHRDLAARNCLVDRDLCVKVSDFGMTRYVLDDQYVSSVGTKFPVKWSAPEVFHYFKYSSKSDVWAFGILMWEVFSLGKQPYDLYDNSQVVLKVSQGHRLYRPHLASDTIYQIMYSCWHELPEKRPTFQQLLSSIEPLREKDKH

[22] = target: D(3) dopamine receptor (Homo sapiens) (UniProt P35462); conditions: Compound concentration 10.0 uM
[23] = target: Serine/threonine-protein kinase D3 (Homo sapiens, UniProt O94806); test: PKD3(PRD3LGG5) Takeda global kinase panel
[24] = target: Serine/threonine-protein kinase TBK1 (Homo sapiens, UniProt Q9UHD2); test: TBK1(TBK1CGF1) Takeda global kinase panel
[25] = target: Myosin light chain kinase 2, skeletal/cardiac muscle (Homo sapiens, UniProt Q9H1R3); test: skMLCK(MYL2LHY1) Takeda global kinase panel
[26] = target: Protein kinase C beta type (Homo sapiens, UniProt P05771); test: PKCbeta(PRKBPHY3) Takeda global kinase panel
Mus musculus = species on record: Mus musculus; test: Inhibition of Phorbol Ester at 10 µM in the Eurofins-Panlabs radioligand binding assay (Eurofins_assay_264500); parameters: ligand concentration 3 nM; conditions: Compound concentration 10.0 uM
[27] = target: Cyclin-dependent kinase 9 (Homo sapiens, UniProt P50750); test: CDK9(CDK9CGS1) Takeda global kinase panel
Chain of Cyclin-dependent kinase 9 (P50750 whole entry): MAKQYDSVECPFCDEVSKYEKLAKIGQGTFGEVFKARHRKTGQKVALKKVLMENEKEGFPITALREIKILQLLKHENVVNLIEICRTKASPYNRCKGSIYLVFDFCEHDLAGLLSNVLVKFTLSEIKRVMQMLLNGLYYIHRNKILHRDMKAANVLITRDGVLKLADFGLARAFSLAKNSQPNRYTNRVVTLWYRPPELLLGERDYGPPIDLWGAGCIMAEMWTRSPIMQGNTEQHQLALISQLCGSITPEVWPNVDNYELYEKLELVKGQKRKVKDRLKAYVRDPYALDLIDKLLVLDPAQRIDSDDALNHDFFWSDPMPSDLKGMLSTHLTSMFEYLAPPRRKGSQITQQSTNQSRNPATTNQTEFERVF

[28] = target: Serine/threonine-protein kinase/endoribonuclease IRE1 (Homo sapiens, UniProt O75460); test: IRE1(ERN1PHY1) Takeda global kinase panel
Chain of Serine/threonine-protein kinase/endoribonuclease IRE1 (O75460 whole entry): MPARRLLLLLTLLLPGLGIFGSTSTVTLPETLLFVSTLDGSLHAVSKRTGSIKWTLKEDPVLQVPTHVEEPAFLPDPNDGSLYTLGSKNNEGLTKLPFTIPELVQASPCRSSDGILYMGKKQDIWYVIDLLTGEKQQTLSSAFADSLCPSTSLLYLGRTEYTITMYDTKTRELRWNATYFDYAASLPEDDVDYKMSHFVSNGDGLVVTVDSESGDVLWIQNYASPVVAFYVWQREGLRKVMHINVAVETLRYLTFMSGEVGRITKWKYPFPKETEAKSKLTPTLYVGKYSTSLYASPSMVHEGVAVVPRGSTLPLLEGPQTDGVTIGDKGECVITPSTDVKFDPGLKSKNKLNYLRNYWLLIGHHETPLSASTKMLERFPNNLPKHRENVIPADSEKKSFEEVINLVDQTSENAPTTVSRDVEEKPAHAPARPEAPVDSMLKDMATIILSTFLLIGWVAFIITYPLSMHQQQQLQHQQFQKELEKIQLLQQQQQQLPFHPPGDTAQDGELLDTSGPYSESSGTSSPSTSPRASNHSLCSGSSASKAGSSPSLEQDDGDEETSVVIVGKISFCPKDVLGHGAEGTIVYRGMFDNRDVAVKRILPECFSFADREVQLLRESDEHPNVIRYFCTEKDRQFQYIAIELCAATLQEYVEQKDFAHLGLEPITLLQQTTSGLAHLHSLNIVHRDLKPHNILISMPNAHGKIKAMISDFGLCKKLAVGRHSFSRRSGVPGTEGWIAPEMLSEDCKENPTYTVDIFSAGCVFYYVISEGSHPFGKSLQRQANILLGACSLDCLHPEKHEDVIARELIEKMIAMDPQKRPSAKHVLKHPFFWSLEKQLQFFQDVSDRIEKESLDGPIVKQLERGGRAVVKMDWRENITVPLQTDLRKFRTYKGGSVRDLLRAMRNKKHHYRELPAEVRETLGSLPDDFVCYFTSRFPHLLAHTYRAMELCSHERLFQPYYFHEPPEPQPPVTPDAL

[29] = target: Calcium/calmodulin-dependent protein kinase type 1G (Homo sapiens, UniProt Q96NX5); test: CaMK1gamma(CA1GLGN1) Takeda global kinase panel
Chain of Calcium/calmodulin-dependent protein kinase type 1G (Q96NX5 whole entry): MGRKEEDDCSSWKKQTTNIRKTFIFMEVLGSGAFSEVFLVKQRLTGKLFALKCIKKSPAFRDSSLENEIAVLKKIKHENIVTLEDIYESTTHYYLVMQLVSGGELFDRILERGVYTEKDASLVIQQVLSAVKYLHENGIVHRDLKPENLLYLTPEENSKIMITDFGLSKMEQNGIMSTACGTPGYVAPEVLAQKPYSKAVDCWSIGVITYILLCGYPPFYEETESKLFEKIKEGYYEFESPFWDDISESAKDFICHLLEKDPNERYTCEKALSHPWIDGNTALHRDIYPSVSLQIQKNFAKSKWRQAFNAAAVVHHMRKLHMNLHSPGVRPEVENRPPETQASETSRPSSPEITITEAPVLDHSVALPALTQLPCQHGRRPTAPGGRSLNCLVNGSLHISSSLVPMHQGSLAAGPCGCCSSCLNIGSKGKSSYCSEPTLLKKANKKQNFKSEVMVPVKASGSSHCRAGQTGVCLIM

[30] = target: Ribosomal protein S6 kinase beta-1 (Homo sapiens, UniProt P23443); test: p70S6K(R6B1CGF1) Takeda global kinase panel
[31] = target: Testis-specific serine/threonine-protein kinase 1 (Homo sapiens, UniProt Q9BXA7); test: TSSK1(TS1BLGP1) Takeda global kinase panel
[32] = target: Serine/threonine-protein kinase ULK1 (Homo sapiens, UniProt O75385); test: ULK1(ULK1LGF1) Takeda global kinase panel
[33] = target: Serine/threonine-protein kinase LATS2 (Homo sapiens, UniProt Q9NRM7); test: LATS2(LAT2LGY1) Takeda global kinase panel
[34] = target: Serine/threonine-protein kinase VRK1 (Homo sapiens, UniProt Q99986); test: VRK1(VRK1LGRI) Takeda global kinase panel
[35] = target: Calcium/calmodulin-dependent protein kinase type IV (Homo sapiens, UniProt Q16566); test: CaMK4(CAM4LGY1) Takeda global kinase panel
[36] = target: L-type calcium channel, dihydropyridine site (Cav1.2 alpha-1C) (Homo sapiens, UniProt Q13936); test: Inhibition of Calcium Channel L-Type, Dihydropyridine at 10 µM in the Eurofins-Panlabs radioligand binding assay (Eurofins_assay_214600); parameters: ligand concentration 0.1 nM, non-specific ligand with concentration 1 µM Nitrendipine, incubation time 90 min, incubation temperature 25 °C; conditions: Wistar, rat, cerebral cortices of rats, probe [3H] Nitrendipine; compound concentration 10 uM; target entry is the homologue from another species
[37] = target: Serine/threonine-protein kinase OSR1 (Homo sapiens, UniProt O95747); test: OSR1(OXS1LGY1) Takeda global kinase panel
[38] = target: Microtubule-associated serine/threonine-protein kinase 4 (Homo sapiens, UniProt O15021); test: MAST4(MAS4LGRD) Takeda global kinase panel

## CN1C(=O)[C@@H](N2CCc3cn(Cc4ccccc4)nc3C2=O)COc2ccccc21 [TP-030-1]
[1]
  IC50: 1 µM
[2]
  IC50: 1 µM
[3]
  IC50: 1 µM
[4]
  IC50: 1 µM
[5]
  inhibition: 15%
Ephrin type-A receptor 1
  IC50: 1 µM
[6]
  IC50: 1 µM
[7]
  IC50: 1 µM
[8]
  IC50: 1 µM
[9]
  IC50: 1 µM
[10]
  IC50: 1 µM
[11]
  IC50: 1 µM
Activin receptor type-1
  IC50: 1 µM
[12]
  IC50: 1 µM
[13]
  IC50: 1 µM
[14]
  inhibition: -2%
[15]
  inhibition: 8%
[16]
  IC50: 1 µM
[17]
  IC50: 1 µM
[18]
  IC50: 1 µM
[19]
  inhibition: 3%
[20]
  inhibition: 3%
Ephrin type-A receptor 5
  IC50: 1 µM
[21]
  IC50: 1 µM
[22]
  inhibition: 8%
[23]
  IC50: 1 µM
[24]
  IC50: 1 µM
[25]
  IC50: 1 µM
[26]
  IC50: 1 µM
Mus musculus
  inhibition: -3%
[27]
  IC50: 1 µM
[28]
  IC50: 1 µM
[29]
  IC50: 1 µM
[30]
  IC50: 1 µM
[31]
  IC50: 1 µM
[32]
  IC50: 1 µM
[33]
  IC50: 1 µM
[34]
  IC50: 1 µM
[35]
  IC50: 1 µM
[36]
  inhibition at 90 min, 10 µM: -18% (not active)
[37]
  IC50: 1 µM
[38]
  IC50: 1 µM

## CN1C(=O)[C@@H](N2CCc3cn(CC4CCS(=O)(=O)CC4)nc3C2=O)COc2ccccc21 [TP-030n]
[1]
  IC50: 1 µM
[2]
  IC50: 1 µM
[3]
  IC50: 1 µM
[4]
  IC50: 1 µM
[5]
  inhibition: 3%
Ephrin type-A receptor 1
  IC50: 1 µM
[6]
  IC50: 1 µM
[7]
  IC50: 1 µM
[8]
  IC50: 1 µM
[9]
  IC50: 1 µM
[10]
  IC50: 1 µM
[11]
  IC50: 1 µM
Activin receptor type-1
  IC50: 1 µM
[12]
  IC50: 1 µM
[13]
  IC50: 1 µM
[14]
  inhibition: 2%
[15]
  inhibition: 12%
[16]
  IC50: 1 µM
[17]
  IC50: 1 µM
[18]
  IC50: 1 µM
[19]
  inhibition: 8%
[20]
  inhibition: 3%
Ephrin type-A receptor 5
  IC50: 1 µM
[21]
  IC50: 1 µM
[22]
  inhibition: 4%
[23]
  IC50: 1 µM
[24]
  IC50: 1 µM
[25]
  IC50: 1 µM
[26]
  IC50: 1 µM
Mus musculus
  inhibition: 7%
[27]
  IC50: 1 µM
[28]
  IC50: 1 µM
[29]
  IC50: 1 µM
[30]
  IC50: 1 µM
[31]
  IC50: 1 µM
[32]
  IC50: 1 µM
[33]
  IC50: 1 µM
[34]
  IC50: 1 µM
[35]
  IC50: 1 µM
[36]
  inhibition at 90 min, 10 µM: -6% (not active)
[37]
  IC50: 1 µM
[38]
  IC50: 1 µM
